Reference: US8173634B2, “Polymorphic form of 1-(4-{1-[(E)-4-cyclohexyl-3-trifluoromethyl-benzyloxyimino]-ethyl}-2-ethyl-benzyl)-azetidine-3-carboxylic” (Novartis AG, priority 2008, dated 2012)
Converted amounts (≈) assume the structure as drawn.

Key:
[1] = Solubility of Crystalline Form A in test solvents (excess solid equilibrated, filtrate by HPLC); assay type: physicochemical; details: for pH of final solution: 25°C solubility test; for solubility at 8 days: 25°C, equilibrated 8 days; for solubility at 4 days: 37°C, equilibrated 4 days
Method: (§1) The solubility and dissolution rate of the Crystalline form A of the free base of compound I prepared as described in Example 1 were tested in various solvents.
(§2) For solubility measurements, excess Form A of the free base of compound I was added to the test solvents and equilibrated for 8 days at 25° C.±0.5° C. and 4 days at 37±0.5° C. Slurries were filtered and the filtrate saved for HPLC solubility determinations. Dissolution rate measurements were carried out in 0.5 cm^2 Vankel punch and die assemblies and a pellet pressure of 2000 pounds. The dissolution was measured using fiber optics dissolution system (C technologies Inc.) and a Cary UV/VIS spectrophotometer, with a stirring rate of 200 rpm. The solution medium was held at 37±0.5° C. and the concentration measurements were made at 260 nm.

[2] = Intrinsic dissolution rate (Vankel punch and die, fiber optics UV at 260 nm, 200 rpm, 37°C); assay type: physicochemical; details: for Intrinsic dissolution rate: 37°C, 200 rpm
Method: as §1, §2

pH of final solution ([1]; 0.01N HCL): 2.24
pH of final solution ([1]; 0.01N HCl + SDS (0.1%)): 2.33
pH of final solution ([1]; 0.1N HCl + SDS (0.1%)): 1.48
pH of final solution ([1]; 0.1N HCl): 1.49
pH of final solution ([1]; Phosphate buffer, pH 6.8): 7.02
pH of final solution ([1]; Water + SDS (0.1%)): 7.02
pH of final solution ([1]; Water): 6.28
solubility at 8 days ([1]; aqueous buffer, thermodynamic from solid, Phosphate buffer, pH 6.8): 0.47 µg/mL (≈ 0.91 µM)
solubility at 8 days ([1]; aqueous with cosolvent or surfactant or cyclodextrin, thermodynamic from solid, Acetonitrile/water (1:1 v/v)): > 40000 µg/mL
solubility at 8 days ([1]; aqueous with cosolvent or surfactant or cyclodextrin, thermodynamic from solid, Ethanol/water (1:1 v/v)): 13900 µg/mL (≈ 26900 µM)
solubility at 8 days ([1]; organic solvent or mixture, thermodynamic from solid, Ethanol): 47600 µg/mL (≈ 92100 µM)
solubility at 8 days ([1]; organic solvent or mixture, thermodynamic from solid, acetonitrile): 610 µg/mL (≈ 1180 µM)
solubility at 8 days ([1]; pH 1.48, aqueous with cosolvent or surfactant or cyclodextrin, thermodynamic from solid, 0.1N HCl + SDS (0.1%)): 22 µg/mL
solubility at 8 days ([1]; pH 1.49, simulated gastric fluid, thermodynamic from solid, 0.1N HCl): 1.5 µg/mL (≈ 2.9 µM)
solubility at 8 days ([1]; pH 2.24, simulated gastric fluid, thermodynamic from solid, 0.01N HCL): 0.6 µg/mL (≈ 1.16 µM)
solubility at 8 days ([1]; pH 2.33, aqueous with cosolvent or surfactant or cyclodextrin, thermodynamic from solid, 0.01N HCl + SDS (0.1%)): 994 µg/mL
solubility at 8 days ([1]; pH 6.28, thermodynamic from solid, Water): 33 µg/mL (≈ 63.9 µM)
solubility at 8 days ([1]; pH 7.02, aqueous with cosolvent or surfactant or cyclodextrin, thermodynamic from solid, Water + SDS (0.1%)): 1190 µg/mL
solubility at 4 days ([1]; simulated gastric fluid, thermodynamic from solid, 0.01N HCl): < 0.5 µg/mL
solubility at 4 days ([1]; simulated gastric fluid, thermodynamic from solid, 0.1N HCl): 1.9 µg/mL (≈ 3.68 µM)
Solubility (overall assessment) ([1]; summary of Tables 2-3): good solubility
solubility at 4 days ([1]; thermodynamic from solid, water): 106 µg/mL (≈ 205 µM)
Intrinsic dissolution rate ([2]; 0.01N HCl + SDS (0.1%)): 0.0245 mg min^−1 cm^−2
Intrinsic dissolution rate ([2]; 0.1N HCl + SDS (0.1%)): 0.0368 mg min^−1 cm^−2
Intrinsic dissolution rate ([2]; Water + SDS (0.1%)): 0.0098 mg min^−1 cm^−2
Dissolution (overall assessment) ([2]; summary of Table 4): relatively quick dissolution
SMILES: CCc1cc(/C(C)=N/OCc2ccc(C3CCCCC3)c(C(F)(F)F)c2)ccc1CN1CC(C(=O)O)C1 [Compound I, 1-(4-{1-[(E)-4-cyclohexyl-3-trifluoromethyl-benzyloxyimino]-ethyl}-2-ethyl-benzyl)-azetidine-3-carboxylic acid]
